According to patent publication US11485762B2, “Compositions and methods for inhibition of L-plastin activity in osteoclasts to reduce bone loss” (University of Maryland, Baltimore, priority 2017, dated 2022):

B1: FL-LPL: HA-TAT fused full-length L-plastin protein (70-75 kDa), purified from bacterial expression vector pTAT-HA (protein, UniProt P13796 1-627, looked up)
chain: MARGSVSDEEMMELREAFAKVDTDGNGYISFNELNDLFKAACLPLPGYRVREITENLMATGDLDQDGRISFDEFIKIFHGLKSTDVAKTFRKAINKKEGICAIGGTSEQSSVGTQHSYSEEEKYAFVNWINKALENDPDCRHVIPMNPNTNDLFNAVGDGIVLCKMINLSVPDTIDERTINKKKLTPFTIQENLNLALNSASAIGCHVVNIGAEDLKEGKPYLVLGLLWQVIKIGLFADIELSRNEALIALLREGESLEDLMKLSPEELLLRWANYHLENAGCNKIGNFSTDIKDSKAYYHLLEQVAPKGDEEGVPAVVIDMSGLREKDDIQRAECMLQQAERLGCRQFVTATDVVRGNPKLNLAFIANLFNRYPALHKPENQDIDWGALEGETREERTFRNWMNSLGVNPRVNHLYSDLSDALVIFQLYEKIKVPVDWNRVNKPPYPKLGGNMKKLENCNYAVELGKNQAKFSLVGIGGQDLNEGNRTLTLALIWQLMRRYTLNILEEIGGGQKVNDDIIVNWVNETLREAKKSSSISSFKDPKISTSLPVLDLIDAIQPGSINYDLLKTENLNDDEKLNNAKYAISMARKIGARVYALPEDLVEVNPKMVMTVFACLMGKGMKRV
modifications: full-length HA-TAT tag
notes: HA-TAT fused full-length L-plastin protein (70-75 kDa), purified from bacterial expression vector pTAT-HA
B2: mutated FL-LPL: TAT-fused full-length L-plastin with Ser-5 and Ser-7 mutated to Ala-5 and Ala-7 (protein, UniProt P13796 1-627, looked up, variant S5A S7A)
chain: MARGAVADEEMMELREAFAKVDTDGNGYISFNELNDLFKAACLPLPGYRVREITENLMATGDLDQDGRISFDEFIKIFHGLKSTDVAKTFRKAINKKEGICAIGGTSEQSSVGTQHSYSEEEKYAFVNWINKALENDPDCRHVIPMNPNTNDLFNAVGDGIVLCKMINLSVPDTIDERTINKKKLTPFTIQENLNLALNSASAIGCHVVNIGAEDLKEGKPYLVLGLLWQVIKIGLFADIELSRNEALIALLREGESLEDLMKLSPEELLLRWANYHLENAGCNKIGNFSTDIKDSKAYYHLLEQVAPKGDEEGVPAVVIDMSGLREKDDIQRAECMLQQAERLGCRQFVTATDVVRGNPKLNLAFIANLFNRYPALHKPENQDIDWGALEGETREERTFRNWMNSLGVNPRVNHLYSDLSDALVIFQLYEKIKVPVDWNRVNKPPYPKLGGNMKKLENCNYAVELGKNQAKFSLVGIGGQDLNEGNRTLTLALIWQLMRRYTLNILEEIGGGQKVNDDIIVNWVNETLREAKKSSSISSFKDPKISTSLPVLDLIDAIQPGSINYDLLKTENLNDDEKLNNAKYAISMARKIGARVYALPEDLVEVNPKMVMTVFACLMGKGMKRV
modifications: full-length HA-TAT tag

What was measured:
Type in all cases: cell-based, mouse
[1] = system: osteoclasts; experiment: Podosome organization in osteoclasts (actin staining); settings: for formation of podosomes: sNT-LPL peptides; for actin modulation involved in podosome assembly/disassembly: TAT-fused LPL peptides
Method: Osteoclast precursors (10^5 cells/coverslips) were cultured on glass cover slips or dentine slices. Fluorescent labeling was done in osteoclasts transduced or untransduced with TAT-proteins. HA or TAT antibody was used to identify the transduced peptides of interest; rhodamine phalloidin was used to determine actin organization (Chellaiah et al., 2000, J. Cell Biol., 148: 665-678; Chellaiah et al., 2000, J. Biol. Chem., 275: 11993-12002). Immunostained and actin stained osteoclasts were photographed with a Bio-Rad confocal laser-scanning microscope. Images were stored in TIF image format and processed by Adobe Photoshop (Adobe Systems Inc., Mountain View. Calif.).
After cells were kept in the serum-free α-MEM medium for two hours, LPL peptides of interest were added to a final concentration of 100-150 nM to cells in serum-free media (Chellaiah et al, 2000, J. Biol. Chem., 275: 11993-12002). Osteoclasts transduced with peptides of interest and added with bone particles in the presence of TNF-α for 3-4 hours or 12-14 hours were used for lysate preparations. Cells plated on coverslips and treated with peptides were used for actin staining to detect podosomes. After transduction for 30 min., osteoclasts were re-plated on dentine slices with respective LPL peptide and TNF-α for 3-6 hours or 12-14 hours. These cells were used for Actin staining with rhodamine-phalloidin or immunostaining analyses (Chellaiah et al., 2000, J. Biol. Chem., 275: 11993-12002; Chellaiah et al., 2000, J. Cell. Biol., 148: 665-678; Chellaiah et al., 2003, J Biol Chem 278: 29086-29097).
Osteoclasts were fixed with 3% paraformaldehyde for 20 minutes and permeabilized with 0.1% Triton X-100 in PBS for 5 minutes. Subsequently, osteoclasts were stained with a primary (HA or integrin αv) and secondary antibody as described (Chellaiah et al., 2003, J Biol Chem 278: 29086-29097). Actin staining was done with rhodamine-phalloidin as described (Chellaiah et al., 2000, J. Biol. Chem., 275: 11993-12002; Chellaiah et al., 2000, J. Cell Biol., 148: 665-678). Cells were washed and mounted on a slide in a mounting solution (Vector Laboratories) and sealed with nail polish. Immunostained osteoclasts were photographed with a Bio-Rad and Nikon confocal microscope. Images were stored in TIF image format and processed by Adobe Photoshop (Adobe Systems Inc., Mountain View, Calif.).

[2] = system: osteoclasts; experiment: Resorption pit formation assay on dentine slices; settings: for resorption of dentine matrix: sNT-LPL peptides, 12-16 hours
Method: Osteoclasts transduced with TAT-LPL peptides of interest for 30 minutes, were re-plated on dentine slices for 10-12 hours in the presence of TAT-fused peptides of interest and TNF-α. Some cultures were treated with a neutralizing antibody to TNFR-1. Resorption assay was performed as described previously (Chellaiah et al., 2000, J. Cell Biol., 148: 665-678; Chellaiah at al., 2000, J. Biol. Chem., 275: 11993-12002). Resorbed area were also scanned in confocal microscopy. Images were stored in TIF format and processed by Adobe Photoshop (Adobe Systems Inc.) (Chellaiah et al., 2000, J. Cell Biol, 148: 665-678). The resorbed pit areas were quantified and data were compiled from four slices per treatment and per experiment. The resorbed pit areas (20-25 pits/slice) were quantified and data were compiled from four slices per treatment. […] The area of the pit was determined from the free-hand traced perimeter using the LSM software (Chellaiah et al., 2000, J. Cell Biol., 148: 665-678). As per Cosmo Bio recommendations, the results of one experiment was compiled for the presentation.
Resorption was evaluated using dentine slices as described previously (Chellaiah et al., 2000, J. Biol. Chem., 275: 11993-12002). After transduction for 30 minutes, osteoclasts were re-plated on dentine slices for 12-16 hours to detect resorption lacuna in the presence of respective LPL peptide and TNF-α. Each treatment was done in quadruplicates Subsequently, dentine slices were stained with Mayer's acid hematoxylin (Sigma) for 6 minutes followed by washing several times with water. Excess stain in the resorbed area and stained cell debris were removed with a cotton swab. The pits were imaged under an X40 objective in a Zeiss inverted phase contrast microscope fitted with a CCD camera (Chellaiah et al., 2003, J Biol Chem 278: 29086-29097; Chellaiah et al., 2003, Mol Biol Cell, 14: 173-189). Images were stored in TIF format and processed by Adobe Photoshop (Adobe Systems Inc.).

[3] = system: osteoclasts; experiment: F-actin content by rhodamine phalloidin binding; settings: for F-actin content: TAT-fused LPL peptides, dentine, TNF-α, versus basal level
Method: For the measurement of F-actin, osteoclasts transduced with TAT-LPL peptides of interest for 15 to 30 minutes were re-plated on dentine slices for 3 to 4 hours or 10-12 hours, respectively, in the presence of indicated TAT-fused peptides of interest and TNF-α. For each treatment four to six wells in 24 well, culture dishes were used. Cells were fixed and rhodamine phalloidin binding to F-actin was done as described (Chellaiah et al., 2000, J. Cell Biol., 148: 665-678; Chellaiah et al., 2000, J. Biol. Chem., 275: 11993-12002: Chellaiah et at, 2007, J. Biol. Chem., 282: 10104-10116),
Osteoclasts were transduced with LPL and control peptides. For each treatment four to six wells in 24 well culture dishes were used. Cells were fixed and rhodamine phalloidin binding to F-actin was done as described (Chellaiah et al., 1998, J. Biol. Chem., 273: 11908-11916; Chellaiah et al., 1996, Mol. Biol. Cell, 7: 743-753).

Molecule | formation of podosomes [1] | resorption of dentine matrix [2] | F-actin level ([3]; sNT-LPL peptides, compared with P2, P5, and P6) | actin modulation involved in podosome assembly/disassembly [1] | resorption (resorption pits) ([2]; dentine 10-12 hours, TNF-α) | F-actin content [3]
MARGAVADEE [Peptide P2, TAT-fused sNT-LPL peptide, Ser-5 and Ser-7 substituted to Alanine (A5A7)] | Neither the migration (FIG. 12A-FIG. 12C) nor the formation the podosomes (FIG. 12D) was affected | no inhibitory effect | – | – | – | –
MARGSVSDEE [Peptide P1, TAT-fused small molecular weight (10aa) amino-terminal LPL peptide, unsubstituted (S5S7)] | Neither the migration (FIG. 12A-FIG. 12C) nor the formation the podosomes (FIG. 12D) was affected | Reduced resorption of dentine | decrease was significant | – | – | –
SRSGMVEEAD [Peptide P5, TAT-fused scrambled sNT-LPL peptide, control, reference compound] | Neither the migration (FIG. 12A-FIG. 12C) nor the formation the podosomes (FIG. 12D) was affected | no inhibitory effect | – | – | – | –
B1 | – | – | – | does not affect | increase in the number and size (area) of resorption pits | substantial increase above the basal level
B2 | – | – | – | does not affect | – | more or less equal
